Laboratory results as given in publication PMC9620171 (Journal of Medicinal Chemistry, 2022).
Where two headings read alike, the source gives them in different places.

How the values were obtained:
[1] = after administration of its prodrug valacyclovir in experimental animals; cited from earlier work
[2] = lead optimization; ref 11 and data on file; cited from earlier work
[3] = system: HSV; settings: lead optimization; ref 11 and data on file; cited from earlier work
[4] = system: HSV-2; settings: day 3 to day 7 postinfection, cited from earlier work
[5] = system: HSV-2; settings: cited from earlier work; for recurrence rate per 10-day period: early treatment days 0–4, follow-up up to 85 days, control 1.0; for time to return to a disease score of zero: control 14 days
[6] = cited from earlier work
[7] = compared with other salts and salt/hydrates; cited from earlier work
[8] = Physicochemical properties of pritelivir mesylate monohydrate; settings: 50 for the classification system
[9] = system: HSV-1; settings: 24 h after heat stress; two oral doses of 50 mg/kg; controls 1.4 × 10^6; cited from earlier work
[10] = system: HSV-2; test: Murine lethal challenge assay, intranasal HSV-2 infection; type: in vivo, mice; settings: using molar doses
[11] = Pharmacokinetics after oral administration, dog; settings: in vivo, 1 mg/kg
[12] = system: HSV; settings: pritelivir-resistant, plaque-purified virus, in vitro; cited from earlier work
[13] = system: two human helicases, one nuclear and one located in the mitochondria; test: Inhibition of human helicases; type: biochemical; settings: one nuclear and one mitochondrial human helicase
[14] = system: HSV; settings: four times daily swabbing; cited from earlier work
[15] = system: liver, heart muscle, kidney, macrophages, monocytes, T lymphocytes, fibroblasts, and neuronal cells; test: Cytotoxicity on a panel of different cell types; type: cell-based
[16] = Routes of elimination of pritelivir in humans; type: in vivo; settings: yields pyridinyl phenyl acetic acid and amino thiazole sulfonamide
[17] = system: HSV-1; settings: oral, start 72 h postinfection; cited from earlier work
[18] = Pharmacokinetics after oral administration, rat; settings: in vivo, 1 mg/kg, elimination half-life in rodents
[19] = system: acyclovir resistant, mucocutaneous HSV infection; settings: preliminary data, cited from earlier work
[20] = Pharmacokinetics after oral administration, human; settings: in vivo, 100 mg
[21] = system: HSV; settings: rats; three daily oral doses, pritelivir 0.5 and 2 mg/kg, valacyclovir 45 and 135 mg/kg; cited from earlier work
[22] = system: HSV-2; settings: 10 and 30 mg/kg twice a day, start 72 h postinfection; cited from earlier work
[23] = system: HSV-1; settings: cited from earlier work
[24] = system: HSV-1; test: Murine lethal challenge assay, intranasal HSV-1 infection; type: in vivo, mice; settings: using molar doses
[25] = system: bacterial reversion and mammalian cell chromosome aberration; test: Genotoxicity, standard ICH battery; type: cell-based; settings: in vitro; free base and mesylate monohydrate examined
[26] = system: other herpesviruses; settings: cited from earlier work
[27] = system: HSV-1; settings: cited from earlier work; for effectiveness on lesion score and virus shedding: wild-type HSV-1, postinfection day 1 to day 4

## Nc1nc2c(ncn2COCCO)c(=O)[nH]1 [acyclovir]
[1]
  acyclovir bioavailability: 58–84%

## Cc1nc(N(C)C(=O)Cc2ccc(-n3cccn3)cc2)sc1S(N)(=O)=O [Compound 13]
[2]
  solubility: improved solubility

## Cc1nc(N(C)C(=O)Cc2ccc(-c3ccccc3)cc2)sc1S(N)(=O)=O [Compound 9]
[3]
  in vivo activity / efficacy: high in vitro and in vivo activity
[2]
  solubility: solubility remained a challenging issue

## Cc1nc(N(C)C(=O)Cc2ccc(-c3c(C)noc3C)cc2)sc1S(N)(=O)=O [Compound 14]
[2]
  solubility: improved solubility

## CC(C)[C@H](N)C(=O)OCCOCn1cnc2c(=O)nc(N)[nH]c21 [valacyclovir, reference compound]
[4]; oral 60 mg/kg t.i.d. (lower dose level)
  mortality: 100%
[5]; 100 mg/kg t.i.d. or 150 mg/kg b.i.d.
  recurrence rate per 10-day period: 0.9
[5]; 150 mg/kg b.i.d., delayed treatment
  time to return to a disease score of zero: 12 days
[5]; valacyclovir 150 mg/kg b.i.d., vaginal swabs
  effect on viral shedding: no discernible effect

## CNS(=O)(=O)c1sc(N(C)C(=O)Nc2ccc(-c3ccccc3)cc2)nc1C [Compound 3]
[3]
  in vivo activity / efficacy: superior in vivo efficacy than valacyclovir

## Cc1nc(N(C)C(=O)Cc2ccc(-c3cccnc3)cc2)sc1S(N)(=O)=O [Compound 15]
[2]
  solubility: less soluble

## Nc1nc2c(ncn2CCC(CO)CO)c(=O)[nH]1 [penciclovir]
[6]; after dosing with the prodrug famciclovir
  half-life of penciclovir: 2.0 to 2.5 h
[6]; human, penciclovir via famciclovir
  bioavailability: 60–77%

## CS(=O)(=O)O.Cc1nc(N(C)C(=O)Cc2ccc(-c3ccccn3)cc2)sc1S(N)(=O)=O.O [Pritelivir mesylate monohydrate]
[7]
  stability under forced degradation conditions: highest stability
[8]
  BCS class: BCS class 2

## Cc1nc(N(C)C(=O)Cc2ccc(-c3ccccn3)cc2)sc1S(N)(=O)=O [Compound 16, pritelivir]
[9]
  mean viral genome copy number in trigeminal ganglia: 2.4 × 10^2
[4]; oral 15 or 60 mg/kg t.i.d.
  recurrence of lesion score after treatment: no such recurrence was observed
[10]
  potency factor vs ganciclovir: 3 fold
[11]
  half-life: ≥ 22 h
[12]
  frequency of resistant HSV mutants: 0.5 to 4.5 × 10^–6
[13]
  inhibition of human helicases: Neither of these enzymes was inhibited
[14]
  efficacy vs valacyclovir in viral shedding rate and days with lesions: superior efficacy vs valacyclovir
[15]
  cytotoxicity: lack of cytotoxicity
[16]
  share of elimination by nonenzymatic hydrolysis: more than 50%
[17]
  b.i.d. dose at which 3-week mortality was already decreased: 0.3 mg/kg
[18]
  half-life: ≥ 5 h
[19]; of the 23 subjects treated
  subjects whose lesions improved but did not heal completely: 4 subjects
[19]
  tolerability: well tolerated without significant adverse effects
[20]
  half-life: 60 to 70 h
[21]
  efficacy compared with valacyclovir: superior efficacy
[3]
  in vivo activity / efficacy: excellent in vivo activity
[22]
  3-week mortality: no mortality
[23]; read-out: in vitro EC50, wild-type HSV-1, wild-type
  EC50: 30 nM
[23]; resistant strain vs wild-type
  higher in vitro ED50 of pritelivir-resistant HSV-1 strain: 27 fold
[24]
  potency factor vs ganciclovir: 8 fold
[25]
  genotoxic potential: nongenotoxic
[5]; 20 mg/kg b.i.d.
  recurrence rate per 10-day period: 0.4
[5]; 30 mg/kg b.i.d.
  recurrence rate per 10-day period: 0.3
[5]; day 2 postinfection, vaginal swabs, 20 mg/kg b.i.d.
  decrease of viral shedding compared to controls: 3 orders of magnitude
[5]; days 7, 25 and 85 postinfection, vs valacyclovir and control groups
  viral load in sacral dorsal root ganglia: considerably lower
[5]; oral 20 mg/kg b.i.d., day 4 to day 14 postinfection
  time to return to a disease score of zero: 7 days
[2]
  solubility: much better solubility
[26]
  activity against other herpesviruses: only weak (if any) activity
[27]; mutant alone, even at 60 mg/kg
  efficacy against HSV-1 mutant without wild-type mixture: practically ineffective
[27]; pritelivir-resistant HSV-1 strain, 60 mg/kg for 8 days
  outcome of high-dose extended treatment: prevented mortality and weight loss
[27]; pritelivir-resistant HSV-1 strain, oral 10 mg/kg, day 1 to day 4
  influence on lesion score and virus shedding: only marginal
[27]; oral 5 mg/kg
  effectiveness on lesion score and virus shedding: largely
[27]; oral 10 mg/kg
  effectiveness on lesion score and virus shedding: fully
